Assay results published in patent US20240315994A1, “SMALL MOLECULE MODULATORS OF FERROPTOSIS” (ARPEGGIO BIOSCIENCES, INC., priority 2021, published 2024).

Test system: HT1080 cells (ATCC, cat #CCL-121)
Experiment: HT1080 CellTiter-Glo 2.0 IC50 assay of working examples
Type: cell-based
Settings: HT-1080, 24 hrs, cells plated with and without 1.5 μM ferrostatin-1, table does not say which
Protocol: Biological evaluation of working examples A1-A47 and B1-B28 was performed in HT1080 cells (ATCC, cat #CCL-121) according to the procedure provided below.
• 1.1 Cells were harvested from flask into cell culture medium and then the cell number count was determined. • 1.2 The cells were suspended with 1.5 μM ferrostatin-1 and without ferrostatin-1. • 1.3 Cells were plated at a density of 1,500 cells per well in a 384-well black sided clear bottom plate, in 25 μL, using electronic multichannel pipette. • 1.4 Plates were covered with lid and spun for 1 min at 1000 rpm, then allowed to incubate overnight at 37° C. under 5% CO2.
• 2.1 Compounds were dissolved at 10 mM stock solution and 10 μl of diluted solution was transferred to a 384 LDV-plate (LABCYTE, LP-0200). A 3 fold, 11-point dilution was performed. • 2.2 Cells were treated with compounds by plate reformat Echo software and spun for 1 min at 1000 rpm. Then incubated at 37° C. for 24 hrs in a CO2 incubator.
• 3.1 The plates were removed from the incubator and allowed to equilibrate to room temperature, at least 30 minutes. • 3.2 CellTiter-Glo® 2.0 Reagent (Promega, G9242) was added (25 μL) to the assay plates and spun for 1 min at 1000 rpm. Then allowed to stand for about 20 minutes before reading luminescence signal on Envision. • 3.3 The IC50 calculations were determined with a nonlinear fit, variable slope (four parameters) log(inhibitor) vs. response model using GraphPad PRISM.

| Structure (SMILES) | IC50 (Table 7) [nM] | IC50 (Table 8) [nM] |
| --- | --- | --- |
| COc1cc(C)cc(N(Cc2ccc(F)cc2)C(=O)CCl)c1 [Compound A25, 2-chloro-N-[(4-fluorophenyl)methyl]-N-(3-methoxy-5-methyl-phenyl)acetamide] | 100 to 1000 | – |
| COc1cccc(N(Cc2ccc(F)cc2)C(=O)CCl)c1Cl [Compound A35, 2-chloro-N-(2-chloro-3-methoxy-phenyl)-N-[(4-fluorophenyl)methyl]acetamide] | 100 to 1000 | – |
| COc1cc(OC)cc(N(Cc2ccc(F)cc2Br)C(=O)CCl)c1 [Compound A23, N-[(2-bromo-4-fluoro-phenyl)methyl]-2-chloro-N-(3,5-dimethoxyphenyl)acetamide] | 10 to 100 | – |
| C#CC(=O)N(c1cc(C)cc(C)c1)c1nc(-c2ccc(Br)cc2)cs1 [Compound B13, N-[4-(4-bromophenyl)thiazol-2-yl]-N-(3,5-dimethylphenyl)prop-2-ynamide] | – | 10 to 100 |
| COc1ccc(N(Cc2ccc(F)cc2)C(=O)CCl)cc1Cl [Compound A17, 2-chloro-N-(3-chloro-4-methoxy-phenyl)-N-[(4-fluorophenyl)methyl]acetamide] | 100 to 1000 | – |
| COc1cc(OC)cc(N(Cc2ccc(C#N)cc2)C(=O)CCl)c1 [Compound A19, 2-chloro-N-[(4-cyanophenyl)methyl]-N-(3,5-dimethoxyphenyl)acetamide] | 10 to 100 | – |
| COc1cc(Cl)cc(N(C(=O)CCl)c2nc(-c3ccc(Br)cc3)cs2)c1 [Compound B24, N-[4-(4-bromophenyl)thiazol-2-yl]-2-chloro-N-(3-chloro-5-methoxy-phenyl)acetamide] | – | 100 to 1000 |
| O=C(CCl)N(Cc1ccc(F)cc1)c1cnc2[nH]nc(Br)c2c1 [Compound A39, N-(3-bromo-1H-pyrazolo[3,4-b]pyridin-5-yl)-2-chloro-N-[(4-fluorophenyl)methyl]acetamide] | 1000 to 10000 | – |
| COc1cc(OC)cc(N(Cc2ccc(F)c(F)c2Cl)C(=O)CCl)c1 [Compound A43, 2-chloro-N-[(2-chloro-3,4-difluoro-phenyl)methyl]-N-(3,5-dimethoxyphenyl)acetamide] | ≤ 10 | – |
| O=C(CCl)N(Cc1ccc(F)cc1)c1cc(Cl)cc(Cl)c1 [Compound A16, 2-chloro-N-(3,5-dichlorophenyl)-N-[(4-fluorophenyl)methyl]acetamide] | 100 to 1000 | – |
| COc1cc(OC)cc(N(Cc2ccc(F)c(OC)c2)C(=O)CCl)c1 [Compound A33, 2-chloro-N-(3,5-dimethoxyphenyl)-N-[(4-fluoro-3-methoxy-phenyl)methyl]acetamide] | ≤ 10 | – |
| Cc1cc(C)cc(N(Cc2ccc(F)cc2)C(=O)CCl)c1 [Compound A1, 2-chloro-N-(3,5-dimethylphenyl)-N-[(4-fluorophenyl)methyl]acetamide] | 100 to 1000 | – |
| COc1cc(OC)cc(N(Cc2cccc3nsnc23)C(=O)CCl)c1 [Compound A45, N-(2,1,3-benzothiadiazol-4-ylmethyl)-2-chloro-N-(3,5-dimethoxyphenyl)acetamide] | 10 to 100 | – |
| COc1cc(OC)cc(N(Cc2ccc(O)cc2)C(=O)CCl)c1 [Compound A24, 2-chloro-N-(3,5-dimethoxyphenyl)-N-[(4-hydroxyphenyl)methyl]acetamide] | 100 to 1000 | – |
| Cc1c(Cl)ccc(N(Cc2ccc(F)cc2)C(=O)CCl)c1Cl [Compound A42, 2-chloro-N-(2,4-dichloro-3-methyl-phenyl)-N-[(4-fluorophenyl)methyl]acetamide] | 100 to 1000 | – |
| Cc1cc(C)cc(N(C(=O)CCl)c2nc(-c3ccccc3)cs2)c1 [Compound B11, 2-chloro-N-(3,5-dimethylphenyl)-N-(4-phenylthiazol-2-yl)acetamide] | – | 100 to 1000 |
| COc1cc(OC)cc(N(Cc2c(C)cc(F)cc2C)C(=O)CCl)c1 [Compound A30, 2-chloro-N-(3,5-dimethoxyphenyl)-N-[(4-fluoro-2,6-dimethyl-phenyl)methyl]acetamide] | ≤ 10 | – |
| COc1cccc(CN(C(=O)CCl)c2cc(C)cc(C)c2)c1 [Compound A5, 2-chloro-N-(3,5-dimethylphenyl)-N-[(3-methoxyphenyl)methyl]acetamide] | 10 to 100 | – |
| COc1ccc(Cl)c(N(Cc2ccc(F)cc2)C(=O)CCl)c1 [Compound A37, 2-chloro-N-(2-chloro-5-methoxy-phenyl)-N-[(4-fluorophenyl)methyl]acetamide] | 100 to 1000 | – |
| C#CC(=O)N(c1cc(Cl)cc(Cl)c1)c1nc(-c2ccc(Br)cc2)cs1 [Compound B22, N-[4-(4-bromophenyl)thiazol-2-yl]-N-(3,5-dichlorophenyl)prop-2-ynamide] | – | 10 to 100 |
| COc1cc(OC)cc(N(Cc2cccc(F)c2F)C(=O)CCl)c1 [Compound A20, 2-chloro-N-[(2,3-difluorophenyl)methyl]-N-(3,5-dimethoxyphenyl)acetamide] | 10 to 100 | – |

| Structure (SMILES) | IC50 (Table 7) [nM] | IC50 (Table 8) [nM] |
| --- | --- | --- |
| O=C(CCl)N(Cc1ccc(F)cc1)c1cc(O)cc(Cl)c1 [Compound A34, 2-chloro-N-(3-chloro-5-hydroxy-phenyl)-N-[(4-fluorophenyl)methyl]acetamide] | 100 to 1000 | – |
| Cc1cccc(N(C(=O)CCl)c2nc(-c3ccc(Br)cc3)cs2)c1 [Compound B16, N-[4-(4-bromophenyl)thiazol-2-yl]-2-chloro-N-(m-tolyl)acetamide] | – | > 10000 |
| C=C(F)C(=O)N(c1cc(C)cc(C)c1)c1nc(-c2ccc(Br)cc2)cs1 [Compound B23, N-[4-(4-bromophenyl)thiazol-2-yl]-N-(3,5-dimethylphenyl)-2-fluoro-prop-2-enamide] | – | > 10000 |
| Cc1cc(C)cc(N(C(=O)CF)c2nc(-c3ccc(Br)cc3)cs2)c1 [Compound B27, N-[4-(4-bromophenyl)thiazol-2-yl]-N-(3,5-dimethylphenyl)-2-fluoro-acetamide] | – | > 10000 |
| Cc1cc(N(Cc2ccc(F)cc2)C(=O)CCl)cc(C)c1O [Compound A41, 2-chloro-N-[(4-fluorophenyl)methyl]-N-(4-hydroxy-3,5-dimethyl-phenyl)acetamide] | > 10000 | – |
| C#CC(=O)N(CCCOC)c1nc(-c2ccc(Br)cc2)cs1 [Compound B2, N-[4-(4-bromophenyl)thiazol-2-yl]-N-(3-methoxypropyl)prop-2-ynamide] | – | 1000 to 10000 |
| COc1ccc(-c2csc(N(C(=O)CCl)c3cc(C)cc(C)c3)n2)cc1 [Compound B9, 2-chloro-N-(3,5-dimethylphenyl)-N-[4-(4-methoxyphenyl)thiazol-2-yl]acetamide] | – | 100 to 1000 |
| COc1cc(OC)cc(N(Cc2ccc(Br)c(F)c2F)C(=O)CCl)c1 [Compound A38, N-[(4-bromo-2,3-difluoro-phenyl)methyl]-2-chloro-N-(3,5-dimethoxyphenyl)acetamide] | ≤ 10 | – |
| COc1ccc(CN(C(=O)CCl)c2cc(OC)cc(OC)c2)cc1 [Compound A21, 2-chloro-N-(3,5-dimethoxyphenyl)-N-[(4-methoxyphenyl)methyl]acetamide] | 10 to 100 | – |
| O=C(CCl)N(Cc1ccc(F)cc1)c1ccc2ncccc2c1 [Compound A22, 2-chloro-N-[(4-fluorophenyl)methyl]-N-(6-quinolyl)acetamide] | 100 to 1000 | – |
| Cc1cc(C)cc(N(Cc2cccc(Cl)c2)C(=O)CCl)c1 [Compound A9, 2-chloro-N-[(3-chlorophenyl)methyl]-N-(3,5-dimethylphenyl)acetamide] | 10 to 100 | – |
| C#CC(=O)N(c1cc(Cl)cc(OC)c1)c1nc(-c2ccc(Br)cc2)cs1 [Compound B26, N-[4-(4-bromophenyl)thiazol-2-yl]-N-(3-chloro-5-methoxy-phenyl)prop-2-ynamide] | – | 10 to 100 |
| Cc1cccc(CN(C(=O)CCl)c2cc(C)cc(C)c2)c1 [Compound A8, 2-chloro-N-(3,5-dimethylphenyl)-N-(m-tolylmethyl)acetamide] | 10 to 100 | – |
| COc1cc(OC)cc(N(Cc2ccc(F)cc2C(F)(F)F)C(=O)CCl)c1 [Compound A27, 2-chloro-N-(3,5-dimethoxyphenyl)-N-[[4-fluoro-2-(trifluoro-methyl)phenyl]methyl]acetamide] | 10 to 100 | – |
| COc1c(C)cc(N(Cc2ccc(F)cc2)C(=O)CCl)cc1C [Compound A40, 2-chloro-N-[(4-fluorophenyl)methyl]-N-(4-methoxy-3,5-dimethyl-phenyl)acetamide] | 10 to 100 | – |
| COc1cc(Cl)cc(N(Cc2ccc(F)cc2)C(=O)CCl)c1 [Compound A14, 2-chloro-N-(3-chloro-5-methoxy-phenyl)-N-[(4-fluorophenyl)methyl]acetamide] | 100 to 1000 | – |
| Cc1cc(C)cc(N(C(=O)C2CO2)c2nc(-c3ccc(Br)cc3)cs2)c1 (centres unmarked) [Compound B28, N-[4-(4-bromophenyl)thiazol-2-yl]-N-(3,5-dimethylphenyl)oxirane-2-carboxamide] | – | > 10000 |
| Cc1ccc(N(Cc2ccc(F)cc2)C(=O)CCl)cn1 [Compound A47, 2-chloro-N-[(4-fluorophenyl)methyl]-N-(6-methyl-3-pyridyl)acetamide] | > 10000 | – |
| COc1cc(N(Cc2ccc(F)cc2)C(=O)CCl)ccc1C [Compound A29, 2-chloro-N-[(4-fluorophenyl)methyl]-N-(3-methoxy-4-methyl-phenyl)acetamide] | 10 to 100 | – |
| O=C(CCl)N(c1cc(F)cc(F)c1)c1nc(-c2ccc(Br)cc2)cs1 [Compound B25, N-[4-(4-bromophenyl)thiazol-2-yl]-2-chloro-N-(3,5-difluorophenyl)acetamide] | – | > 10000 |
